Assay: Pharmacokinetic studies: bioavailability after oral administration
Conditions: in vivo, nach oraler Gabe, read-out: Bioverfügbarkeit
From the text: Als Ergebnis pharmakokinetischer Untersuchungen wurde festgestellt, daß Ipsapiron nach oraler Gabe eine Bioverfügbarkeit von nur 40 % aufweist. Ein erheblicher Wirkstoffanteil wird bereits präsystemisch metabolisiert und kann nicht bioverfügbar werden. Dies ist nachteilig, weil dieser Substanzverlust durch eine erhöhte Wirkstoffdosis ausgeglichen werden muß. Es resultieren große, für den Patienten schlecht schluckbare Arzneiformen und eine erhebliche Belastung des Patienten mit pharmakologisch inaktiven Ipsapiron-Metaboliten. Ferner nehmen mit sinkender Bioverfugbarkeit die interindividuellen Schwankungen im Plasmakonzentrationsverlauf zu und die Therapie wird unkalkulierbar.

bioavailability: 40%
Structure (SMILES): O=C1c2ccccc2S(=O)(=O)N1CCCCN1CCN(c2ncccn2)CC1 [Ipsapiron]
